# Several values for one entry are separate records, joined by “and”; a condition that tells them apart may be missing. Equal entries are not always repeated.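 Cells were grown in 96-well plates and exposed to each compound for 48 hours at five concentrations; endpoints were interpolated linearly between bracketing concentrations, or set to the highest concentration if not reached. GI50 = concentration required for 50% inhibition of growth. Definition used: TGI = concentration required for complete inhibition of growth.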
# System: NCI-H23 lung
# Test: inhibition of tumour cell growth, NCI panel, 48 h
Structure (SMILES),GI50 [µM],TGI [µM]
CC(C)(C)C(=O)OCOP(=O)(OCOC(=O)C(C)(C)C)C1CCCN(O)C1=O (centres undefined),0.564,3.4
CC(SC(C)C(=O)N/N=C/c1cccc(Cl)c1)C(=O)N/N=C\c1cccc(Cl)c1 (centres undefined),14,32.6
COC(=O)C1=C(c2ccc3c(c2)OCO3)O[C@H](c2cc(OC)c(OC)c(OC)c2)[C@H]1COC(C)=O,–,17.7
Cc1ccc(Cl)cc1Nc1nc(C(F)(F)F)ccc1C(=O)N1CCN(c2ccc(F)cc2)CC1,10.2,24.2
CCCCc1c(OC)cc(O)c2c1C(=O)c1[nH]c(C(=O)O)c(O)c(=O)c1C2=O,–,20.3
O=C(Nc1ccc(OS(=O)(=O)c2ccccc2)cc1)C12CC3CC(CC(C3)C1)C2,6.68,> 100
COC(=O)c1cc2c3ccccc3n(C(C)=O)c2cn1,–,> 100
O=S(=O)([O-])c1ccc2c(c1)-c1nc-2nc2[n-]c(nc3nc(nc4[n-]c(n1)c1ccc(S(=O)(=O)[O-])cc41)-c1cc(S(=O)(=O)[O-])ccc1-3)c1ccc(S(=O)(=O)[O-])cc21.[Cu+2].[Na+],98.4,> 100
CCN1CCN(c2ccc(Nc3cc(N(C)C(=O)Nc4c(Cl)c(OC)cc(OC)c4Cl)ncn3)cc2)CC1,4.35,44.6
CC(C)c1ccc(Nc2ccc3c(OCCCN4CCN(C)CC4)cccc3n2)cc1,11.9,26.1
CCCCOC(=O)C1C(c2ccc(Cl)cc2)NC(c2ccc(Cl)cc2)C(C(=O)OCCCC)S1(=O)=O (centres undefined),–,> 100
Cc1cc(Br)cc(C)c1NC(=O)C(=O)C(C(=O)c1ccc2ccccc2c1)C1OC(=O)c2ccccc21 (centres undefined),–,13.6
COc1ccc2c(c1)C(C)Cc1c(Cl)ncnc1N2C (centres undefined),0.449,11.5
O=C1c2ccccc2C(=O)C1(Cl)C1(S(=O)(=O)O)c2ccccc2-c2ccccc21,–,> 100

# System: SR leukemia
# Test: inhibition of tumour cell growth, NCI panel, 48 h
Structure (SMILES),TGI,GI50
O=C(CCCn1ccnc1[N+](=O)[O-])NCCn1cncc1[N+](=O)[O-],> 100 µM,–
Cn1cc(C2=C(c3ccc4ccccc4c3)C(=O)NC2=O)c2ccccc21,> 25 µM,3.11 µM
O=C(OCc1ccc2cccc(O)c2n1)N1CCN(C(=O)c2cc3cc(F)ccc3[nH]2)CC1,1.6 µM,0.272 µM
C[As](C)SC1OC(CO)C(O)C1O (centres undefined),3.13 µM,0.213 µM
Cn1c(=O)c2c(nc(Nc3cc(=O)[nH]c(=O)[nH]3)n2Cc2ccccc2)n(C)c1=O,> 100 µM,> 100 µM
COc1ccc2c(c1)CCC1C2CC[C@@]2(C)C1CC1=CC(COC(C)=O)C3C(=O)c4ccccc4C(=O)C3C12 (some centres undefined),> 100 µM,> 100 µM
C=C(F)C(=O)N1CCN(c2nc(OC[C@@H]3CCCN3C)nc3c2CCN(c2cccc4cccc(Cl)c24)C3)C[C@@H]1CC#N,2.6 µM,0.657 µM
O=C1CCCC/C(=C/c2ccccc2)N1,> 100 µM,–
CC/C(=C(/c1ccc(OCCN(C)C)cc1)c1ccc(OC(=O)CCCCC(=O)c2c(C)[nH]c(/C=C3\N=C(c4ccc[nH]4)C=C3OC)c2C)cc1)c1ccccc1,21 µM,3.05 µM
CC[C@]12C=CCN3CC[C@@]4(c5ccc(OC)cc5N(C)[C@H]4[C@@](O)(C(=O)OC)[C@@H]1OC(=O)CCC[P+](c1ccccc1)(c1ccccc1)c1ccccc1)[C@@H]32,7.07 µM and 1.97 µM,0.379 µM and 0.438 µM
CC(=O)OC1Oc2ccccc2-c2oc(=O)c(-c3cc(=O)oc4cc(O)ccc34)cc21 (centres undefined),6.5 µM,2.65 µM
CC(C)(C)C(=O)OCOP(=O)(OCOC(=O)C(C)(C)C)C1CCCN(O)C1=O (centres undefined),7.87 µM,0.433 µM
CC(SC(C)C(=O)N/N=C/c1cccc(Cl)c1)C(=O)N/N=C\c1cccc(Cl)c1 (centres undefined),11.1 µM,3.53 µM
CC(=O)O.CC(=O)O.CC(=O)O.CC(=O)O.CC(=O)O.CC(=O)O.O.[Ti].[Ti],> 100 µM,> 100 µM
COC(=O)C1=C(c2ccc3c(c2)OCO3)O[C@H](c2cc(OC)c(OC)c(OC)c2)[C@H]1COC(C)=O,70.3 µM,–
Cc1ccc(Cl)cc1Nc1nc(C(F)(F)F)ccc1C(=O)N1CCN(c2ccc(F)cc2)CC1,80.6 µM,17.6 µM
CCCCc1c(OC)cc(O)c2c1C(=O)c1[nH]c(C(=O)O)c(O)c(=O)c1C2=O,29.3 µM,–
O=C(Nc1ccc(OS(=O)(=O)c2ccccc2)cc1)C12CC3CC(CC(C3)C1)C2,> 100 µM,3.6 µM
COC(=O)c1cc2c3ccccc3n(C(C)=O)c2cn1,> 100 µM,–
O=S(=O)([O-])c1ccc2c(c1)-c1nc-2nc2[n-]c(nc3nc(nc4[n-]c(n1)c1ccc(S(=O)(=O)[O-])cc41)-c1cc(S(=O)(=O)[O-])ccc1-3)c1ccc(S(=O)(=O)[O-])cc21.[Cu+2].[Na+],> 100 µM,11.2 µM
CCN1CCN(c2ccc(Nc3cc(N(C)C(=O)Nc4c(Cl)c(OC)cc(OC)c4Cl)ncn3)cc2)CC1,4.63 µM,2.02 µM
CC(C)c1ccc(Nc2ccc3c(OCCCN4CCN(C)CC4)cccc3n2)cc1,10.7 µM,2.85 µM
CCCCOC(=O)C1C(c2ccc(Cl)cc2)NC(c2ccc(Cl)cc2)C(C(=O)OCCCC)S1(=O)=O (centres undefined),> 100 µM,–
Cc1cc(Br)cc(C)c1NC(=O)C(=O)C(C(=O)c1ccc2ccccc2c1)C1OC(=O)c2ccccc21 (centres undefined),33.9 µM,–
COc1ccc2c(c1)C(C)Cc1c(Cl)ncnc1N2C (centres undefined),> 19.8 µM,0.45 µM
CC(C)=C[C@@H]1C[C@H](C)[C@H]2CC[C@H](C)C3=C2[C@](O)(OC3=O)[C@]1(C)O,> 100 µM,> 100 µM
O=C1c2ccccc2C(=O)C1(Cl)C1(S(=O)(=O)O)c2ccccc2-c2ccccc21,> 100 µM,–

# System: RXF 393 renal
# Test: inhibition of tumour cell growth, NCI panel, 48 h
Structure (SMILES),TGI,GI50
O=C(CCCn1ccnc1[N+](=O)[O-])NCCn1cncc1[N+](=O)[O-],> 100 µM,–
Cn1cc(C2=C(c3ccc4ccccc4c3)C(=O)NC2=O)c2ccccc21,> 25 µM,> 25 µM
O=C(OCc1ccc2cccc(O)c2n1)N1CCN(C(=O)c2cc3cc(F)ccc3[nH]2)CC1,2.17 µM,0.981 µM
C[As](C)SC1OC(CO)C(O)C1O (centres undefined),2.37 µM,0.176 µM
Cn1c(=O)c2c(nc(Nc3cc(=O)[nH]c(=O)[nH]3)n2Cc2ccccc2)n(C)c1=O,> 100 µM,> 100 µM
COc1ccc2c(c1)CCC1C2CC[C@@]2(C)C1CC1=CC(COC(C)=O)C3C(=O)c4ccccc4C(=O)C3C12 (some centres undefined),> 100 µM,59.8 µM
C=C(F)C(=O)N1CCN(c2nc(OC[C@@H]3CCCN3C)nc3c2CCN(c2cccc4cccc(Cl)c24)C3)C[C@@H]1CC#N,2.66 µM,1.29 µM
O=C1CCCC/C(=C/c2ccccc2)N1,> 100 µM,–
CC/C(=C(/c1ccc(OCCN(C)C)cc1)c1ccc(OC(=O)CCCCC(=O)c2c(C)[nH]c(/C=C3\N=C(c4ccc[nH]4)C=C3OC)c2C)cc1)c1ccccc1,17.7 µM,3.86 µM
CC[C@]12C=CCN3CC[C@@]4(c5ccc(OC)cc5N(C)[C@H]4[C@@](O)(C(=O)OC)[C@@H]1OC(=O)CCC[P+](c1ccccc1)(c1ccccc1)c1ccccc1)[C@@H]32,2.94 µM and 4.34 µM,0.736 µM and 1.53 µM
CC(=O)OC1Oc2ccccc2-c2oc(=O)c(-c3cc(=O)oc4cc(O)ccc34)cc21 (centres undefined),20.6 µM,4.5 µM
CC(C)(C)C(=O)OCOP(=O)(OCOC(=O)C(C)(C)C)C1CCCN(O)C1=O (centres undefined),1.74 µM,0.36 µM
CC(SC(C)C(=O)N/N=C/c1cccc(Cl)c1)C(=O)N/N=C\c1cccc(Cl)c1 (centres undefined),90.1 µM,22.6 µM
CC(=O)O.CC(=O)O.CC(=O)O.CC(=O)O.CC(=O)O.CC(=O)O.O.[Ti].[Ti],> 100 µM,> 100 µM
COC(=O)C1=C(c2ccc3c(c2)OCO3)O[C@H](c2cc(OC)c(OC)c(OC)c2)[C@H]1COC(C)=O,5.09 µM,–
Cc1ccc(Cl)cc1Nc1nc(C(F)(F)F)ccc1C(=O)N1CCN(c2ccc(F)cc2)CC1,29.9 µM,11.2 µM
CCCCc1c(OC)cc(O)c2c1C(=O)c1[nH]c(C(=O)O)c(O)c(=O)c1C2=O,8.25 µM,–
O=C(Nc1ccc(OS(=O)(=O)c2ccccc2)cc1)C12CC3CC(CC(C3)C1)C2,> 100 µM,5.12 µM
COC(=O)c1cc2c3ccccc3n(C(C)=O)c2cn1,87.1 µM,–
O=S(=O)([O-])c1ccc2c(c1)-c1nc-2nc2[n-]c(nc3nc(nc4[n-]c(n1)c1ccc(S(=O)(=O)[O-])cc41)-c1cc(S(=O)(=O)[O-])ccc1-3)c1ccc(S(=O)(=O)[O-])cc21.[Cu+2].[Na+],> 100 µM,49.4 µM
CCN1CCN(c2ccc(Nc3cc(N(C)C(=O)Nc4c(Cl)c(OC)cc(OC)c4Cl)ncn3)cc2)CC1,2.72 µM,1.13 µM
CC(C)c1ccc(Nc2ccc3c(OCCCN4CCN(C)CC4)cccc3n2)cc1,22.4 µM,7.28 µM
CCCCOC(=O)C1C(c2ccc(Cl)cc2)NC(c2ccc(Cl)cc2)C(C(=O)OCCCC)S1(=O)=O (centres undefined),> 100 µM,–
Cc1cc(Br)cc(C)c1NC(=O)C(=O)C(C(=O)c1ccc2ccccc2c1)C1OC(=O)c2ccccc21 (centres undefined),17.8 µM,–
COc1ccc2c(c1)C(C)Cc1c(Cl)ncnc1N2C (centres undefined),3.83 µM,0.42 µM
CC(C)=C[C@@H]1C[C@H](C)[C@H]2CC[C@H](C)C3=C2[C@](O)(OC3=O)[C@]1(C)O,> 100 µM,> 100 µM
O=C1c2ccccc2C(=O)C1(Cl)C1(S(=O)(=O)O)c2ccccc2-c2ccccc21,> 100 µM,–

# Source: PubChem BioAssay (NCI)
